In patent US9249163B2, “PDE10a inhibitors for the treatment of type II diabetes” (Janssen Pharmaceutica, NV, priority 2013, dated 2016):
Where a name gives a salt, the structure may show the parent alone.

Experiments:
[1] = molecular target: Human recombinant PDE10A2 (Homo sapiens (Human), UniProt Q9Y233); experiment: In vitro hPDE10a (human recombinant PDE10A2, scintillation proximity assay); format: biochemical; settings: human recombinant PDE10A2, 60 nM cAMP, 60 min at room temperature; read-out: hPDE10a2 IC50
[2] = molecular target: Rat recombinant PDE10a (rPDE10a) (Rattus norvegicus (Rat), UniProt Q9QYJ6); experiment: In vitro assay PDE10a (rat recombinant PDE10a, SPA); format: biochemical; settings: 60 nM cAMP, 60 min at rt, read-out: rPDE10a2 IC50
Summary of the method: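 Rat PDE10a expressed in Sf9 cells (baculovirus) and Ni-sepharose purified. Incubated with compound for 60 min at rt in 50 mM Tris pH 7.8, 8.3 mM MgCl2, 1.7 mM EGTA with 60 nM cAMP plus 0.008 μCi ^3H-cAMP (final), 1% DMSO. Read-out by PDE SPA bead scintillation counting (cpm), no-enzyme blank.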

[3] = PDE10a-perfused brain permeability study (plasma and brain concentrations); settings: male, Sprague-Dawley, rat; for Kp at 2 h: brain/plasma
Method: Drug administration by oral gavage, subcutaneous injection or intravenous was carried out using male Sprague Dawley rats under IACUC protocol (SH-MET3010). Male Sprague Dawley rats (Charles River) ˜300-350 g were maintained on a 4% standard rodent diet (Test Diet 5001). They are allowed ad libitum access to water and food. Room temperature was maintained at 64° F. and humidity at 30-70%.
Three animals per compound were provided a dose of 2 mg/mL in 20% HpbCD/Tris pH 8 by tail i.v. or 30 mpk p.o. or s.c. in 20% HpbCD/Tris pH 8, with PDE10a antagonists. A first blood sample was collected at 30 min via retro-orbital sinus (anesthetic by 70% CO2/30% O2) into heparinzed plasma separator tubes. The blood was centrifuged and 100 uL plasma was placed into a 96 well plate and saved on dry ice.
After the 120 min, the final blood sample was collected via retro-orbital sinus under anesthesia by IP 0.5 cc injection of a 4/1 mixture of Ketaset: AnaSed [(prepared 10 mL Ketaset (100 mg/mL Ketamine)+2.5 mL AnaSed (20 mg/mL Xylazine)]. The rats were then perfused with 400 mL heparinized saline (10,000 units/L) through the left ventricle of the heart; the brains were then removed (not including the medulla), weighed and homogenized in PBS (4 mL/g tissue). The samples were stored at −80° C. and submitted for chemical analysis of blood and brain concentrations. Endpoints of sample analysis consists of the plasma concentrations at 30 and 120 min, plus brain concentrations at 120 min.

Sequence of Rat recombinant PDE10a (rPDE10a) (Q9QYJ6 whole entry): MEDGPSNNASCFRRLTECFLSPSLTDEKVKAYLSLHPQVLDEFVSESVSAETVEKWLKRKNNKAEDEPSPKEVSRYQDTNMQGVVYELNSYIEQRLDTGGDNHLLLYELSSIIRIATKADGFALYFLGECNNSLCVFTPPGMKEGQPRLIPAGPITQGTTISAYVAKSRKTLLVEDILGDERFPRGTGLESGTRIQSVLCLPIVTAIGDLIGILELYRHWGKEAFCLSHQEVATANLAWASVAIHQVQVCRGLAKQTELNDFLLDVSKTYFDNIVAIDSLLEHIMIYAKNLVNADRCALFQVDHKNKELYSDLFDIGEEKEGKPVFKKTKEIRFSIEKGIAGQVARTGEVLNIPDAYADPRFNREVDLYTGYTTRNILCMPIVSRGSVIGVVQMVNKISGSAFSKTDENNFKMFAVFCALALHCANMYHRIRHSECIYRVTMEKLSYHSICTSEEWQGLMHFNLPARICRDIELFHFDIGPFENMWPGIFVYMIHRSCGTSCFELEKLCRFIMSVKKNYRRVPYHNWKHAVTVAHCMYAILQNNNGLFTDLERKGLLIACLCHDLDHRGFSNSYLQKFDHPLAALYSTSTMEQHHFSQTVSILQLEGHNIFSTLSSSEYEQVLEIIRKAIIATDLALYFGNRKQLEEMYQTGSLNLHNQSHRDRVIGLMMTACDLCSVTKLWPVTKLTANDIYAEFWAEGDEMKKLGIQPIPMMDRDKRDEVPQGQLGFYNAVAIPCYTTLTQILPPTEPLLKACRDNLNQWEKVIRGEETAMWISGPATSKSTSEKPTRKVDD
Sequence of Human recombinant PDE10A2 (Q9Y233 267-1055): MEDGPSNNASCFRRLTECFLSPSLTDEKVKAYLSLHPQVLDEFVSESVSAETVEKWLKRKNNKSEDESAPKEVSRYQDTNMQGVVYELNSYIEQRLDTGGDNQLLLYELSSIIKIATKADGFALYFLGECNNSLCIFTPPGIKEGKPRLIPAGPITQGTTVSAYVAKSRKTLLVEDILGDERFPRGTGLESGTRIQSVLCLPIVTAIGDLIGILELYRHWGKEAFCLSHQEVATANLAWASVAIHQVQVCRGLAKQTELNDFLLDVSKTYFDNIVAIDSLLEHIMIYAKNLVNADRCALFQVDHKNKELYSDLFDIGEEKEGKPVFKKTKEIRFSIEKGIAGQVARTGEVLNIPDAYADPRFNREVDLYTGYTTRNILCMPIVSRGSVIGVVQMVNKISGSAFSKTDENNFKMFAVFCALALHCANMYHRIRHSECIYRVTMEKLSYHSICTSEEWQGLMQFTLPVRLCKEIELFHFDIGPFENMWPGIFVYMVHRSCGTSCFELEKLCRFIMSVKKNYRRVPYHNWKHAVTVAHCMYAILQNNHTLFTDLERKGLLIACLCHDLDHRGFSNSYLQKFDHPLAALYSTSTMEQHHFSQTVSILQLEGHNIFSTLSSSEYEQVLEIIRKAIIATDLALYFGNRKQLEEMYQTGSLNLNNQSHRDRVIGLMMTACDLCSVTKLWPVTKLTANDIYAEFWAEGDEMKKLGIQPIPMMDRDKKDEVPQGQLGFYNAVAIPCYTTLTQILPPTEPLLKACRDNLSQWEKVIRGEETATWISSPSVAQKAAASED

Compound	IC50 [1] [nM]	IC50 [2] [nM]	concentration at 2 h ([3]; brain) [ng/g]	Kp at 2 h [3]	concentration at 2 h ([3]; plasma) [ng/mL]
CC(=O)NS(=O)(=O)c1ccc(-c2cnc(N3CCOCC3)c3nc(/C=C/c4ccc5ccccc5n4)cn23)cc1 [Cpd 69, (E)-N-(4-(8-Morpholino-2-(2-(quinolin-2-yl)vinyl)imidazo[1,2-a]pyrazin-5-yl)phenylsulfonyl)acetamide trifluoroacetic acid salt]	4	4	36.1	1	73.6
O=c1[nH]c(-c2ccc(-c3cnc(N4CCOCC4)c4nc(CCc5ccc6ccccc6n5)cn34)cn2)no1 [Cpd 74, 3-[5-[8-(Morpholin-4-yl)-2-[2-(quinolin-2-yl)ethyl]imidazo[1,2-a]pyrazin-5-yl]pyridin-2-yl]-4,5-dihydro-1,2,4-oxadiazol-5-one]	1	< 1	0	0	58
CS(=O)(=O)NC(=O)c1ccc(-c2cnc(N3CCOCC3)c3nc(COc4ccc5ccccc5n4)cn23)cn1 [Cpd 76, N-Methanesulfonyl-5-[8-(morpholin-4-yl)-2-[(quinolin-2-yloxy)methyl]imidazo[1,2-a]pyrazin-5-yl]pyridine-2-carboxamide]	2	3	0	0	115
C(=C\c1cn2c(-c3ccc(-c4nnc[nH]4)nc3)cnc(N3CCOCC3)c2n1)/c1ccc2ccccc2n1 [Cpd 91, (E)-4-(5-(6-(2H-1,2,4-Triazol-3-yl)pyridin-3-yl)-2-(2-(quinolin-2-yl)vinyl)imidazo[1,2-a]pyrazin-8-yl)morpholine]	12	3	112	0.55	209
c1ccc2nc(OCc3cn4c(-c5ccc(Sc6cnn[nH]6)nc5)cnc(N5CCOCC5)c4n3)ccc2c1 [Cpd 92, 4-(5-(6-((1H-1,2,3-Triazol-5-yl)thio)pyridin-3-yl)-2-((quinolin-2-yloxy)methyl)imidazo[1,2-a]pyrazin-8-yl)morpholine]	6	3	78.3	0.77	135
C(=C\c1cn2c(-c3cnc4nc[nH]c4c3)cnc(N3CCOCC3)c2n1)/c1ccc2ccccc2n1 [Cpd 93, (E)-4-(5-(3H-Imidazo[4,5-b]pyridin-6-yl)-2-(2-(quinolin-2-yl)vinyl)imidazo[1,2-a]pyrazin-8-yl)morpholine]	13	10	0	0	98
O=c1[nH]c(-c2ccc(-c3cnc(N4CCOCC4)c4nc(/C=C/c5ccc6ccccc6n5)cn34)cn2)no1 [Cpd 95, (E)-3-(5-(8-Morpholino-2-(2-(quinolin-2-yl)vinyl)imidazo[1,2-a]pyrazin-5-yl)pyridin-2-yl)-1,2,4-oxadiazol-5-ol]	5	< 1	0	0	113
c1ccc2nc(OCc3cn4c(-c5ccc(-c6nnn[nH]6)nc5)cnc(N5CCOCC5)c4n3)ccc2c1 [Cpd 97, 4-(5-(6-(1H-Tetrazol-5-yl)pyridin-3-yl)-2-((quinolin-2-yloxy)methyl)imidazo[1,2-a]pyrazin-8-yl)morpholine]	1	1	0	0	84
O=C(O)CNc1ccc(-c2cnc(N3CCOCC3)c3nc(COc4ccc5ccccc5n4)cn23)cn1 [Cpd 107, 2-((5-(8-Morpholino-2-((quinolin-2-yloxy)methyl)imidazo[1,2-a]pyrazin-5-yl)pyridin-2-yl)amino)acetic acid trifluoroacetic acid salt]	2	2	0	0	22.5
NS(=O)(=O)N1CCC(c2cnc(N3CCOCC3)c3nc(COc4ccc5ccccc5n4)cn23)CC1 [Cpd 109, 4-(8-Morpholino-2-((quinolin-2-yloxy)methyl)imidazo[1,2-a]pyrazin-5-yl)piperidine-1-sulfonamide trifluoroacetic acid salt]	110	87	8.15	0.03	226
O=C(O)CN1CCC(c2cnc(N3CCOCC3)c3nc(COc4ccc5ccccc5n4)cn23)CC1 [Cpd 110, 2-(4-(8-Morpholino-2-((quinolin-2-yloxy)methyl)imidazo[1,2-a]pyrazin-5-yl)piperidin-1-yl)acetic acid trifluoroacetic acid salt]	407	288	0	0	4.63
c1ccc2nc(OCc3cn4c(-c5ccc(N6CCNCC6)nc5)cnc(-c5ccc6nc[nH]c6c5)c4n3)ccc2c1 [Cpd 119, 2-((8-(1H-Benzo[d]imidazol-6-yl)-5-(6-(piperazin-1-yl)pyridin-3-yl)imidazo[1,2-a]pyrazin-2-yl)methoxy)quinoline trifluoroacetic acid salt]	54	26	108	2.99	53.8
c1ccc2nc(OCc3cn4c(-c5cnc(N6CCNCC6)nc5)cnc(N5CCOCC5)c4n3)ccc2c1 [Cpd 121, 4-(5-(2-(Piperazin-1-yl)pyrimidin-5-yl)-2-((quinolin-2-yloxy)methyl)imidazo[1,2-a]pyrazin-8-yl)morpholine methane sulfonic acid salt]	59	83	81.5	1.55	55.1
O=C(Nc1cn2c(-c3ccc(N4CCNCC4)nc3)cnc(N3CCOCC3)c2n1)c1ccc2ccccc2n1 [Cpd 125, N-(8-Morpholino-5-(6-(piperazin-1-yl)pyridin-3-yl)imidazo[1,2-a]pyrazin-2-yl)quinoline-2-carboxamide hydrochloric acid salt]	309	339	54.9	1.2	45.9
c1ccc2nc(OCc3cn4c(-c5ccc(N6CCNCC6)nc5)cnc(N5CCOCC5)c4n3)ccc2c1 [Cpd 126, 4-(5-(6-(piperazin-1-yl)pyridin-3-yl)-2-((quinolin-2-yloxy)methyl)imidazo[1,2-a]pyrazin-8-yl)morpholine methane sulfonic acid salt]	34	13	49.3	2.26	22.4
Cc1ccc(-c2cnc(N3CCOCC3)c3nc(COc4ccc5ccccc5n4)cn23)cn1 [Cpd 128, 4-(5-(6-Methylpyridin-3-yl)-2-((quinolin-2-yloxy)methyl)imidazo[1,2-a]pyrazin-8-yl)morpholine methane sulfonic acid salt]	30	31	1.85	0.58	16.4
c1cncc(-c2cnc(N3CCOCC3)c3nc(COc4ccc5ccccc5n4)cn23)c1 [Cpd 129, 4-(5-(Pyridin-3-yl)-2-((quinolin-2-yloxy)methyl)imidazo[1,2-a]pyrazin-8-yl)morpholine methane sulfonic acid salt]	31	27	21.9	2.07	11
c1ccc2nc(OCc3cn4c(-c5ccc(N6CCOCC6)nc5)cnc(N5CCOCC5)c4n3)ccc2c1 [Cpd 131, 4-(5-(8-Morpholino-2-((quinolin-2-yloxy)methyl)imidazo[1,2-a]pyrazin-5-yl)pyridin-2-yl)morpholine]	51	11	57.3	2.04	28.1
